The text below walks through data of US20100317001A1, “METHOD OF USING TUMOUR RNA INTEGRITY TO MEASURE RESPONSE TO CHEMOTHERAPY IN CANCER PATIENTS” (LAURENTIAN UNIVERSITY, priority 2007, published 2010).

One data set deals with breast cancer. As to conditions: after anthracycline-based chemotherapy; cited from earlier work.
The conditions of data set [1]: dose level 6, epirubicin plus docetaxel every 3 weeks (Schedule A) with pegfilgrastim support.
Method: Patients were from a national clinical trial hosted by the National Cancer Institute of Canada Clinical Trials Group (referred to as group “MA.22”) and were treated with increasing dose levels of both epirubicin and docetaxel, with pegfilgrastim support to reduce neutropenia associated with this therapy.

Regarding `CC(=O)O[C@@]12CO[C@@H]1C[C@H](O)[C@@]1(C)C(=O)[C@H](O)C3=C(C)[C@@H](OC(=O)[C@H](O)[C@@H](NC(=O)OC(C)(C)C)c4ccccc4)C[C@@](O)([C@@H](OC(=O)c4ccccc4)[C@H]21)C3(C)C` [docetaxel], in the data set with breast cancer, the “breast cancer patients that respond” value was 35.4%. For the same molecule, the maximum tolerated dose in data set [1] was found to be 75 mg/m^2.
Consider `COc1cccc2c1C(=O)c1c(O)c3c(c(O)c1C2=O)C[C@@](O)(C(=O)CO)C[C@@H]3O[C@H]1C[C@H](N)[C@@H](O)[C@H](C)O1` [epirubicin], for which the maximum tolerated dose in data set [1] turned out to be 105 mg/m^2.
With `CC(=O)O[C@H]1C(=O)[C@@]2(C)[C@H]([C@H](OC(=O)c3ccccc3)[C@]3(O)C[C@H](OC(=O)[C@H](O)[C@@H](NC(=O)c4ccccc4)c4ccccc4)C(C)=C1C3(C)C)[C@]1(OC(C)=O)CO[C@@H]1C[C@@H]2O` [paclitaxel], in the data set with breast cancer, the “breast cancer patients that respond” value is given as 33%.
